Holding throughout (assay type): in vivo
In assay [1] the test system is corn (Zea mays). The assay is described as follows: Test A postemergence. The settings on record: Zea mays, post-emergence, 240 h, 125 g ai/ha; for plant injury at 125 g/ha: postemergence, visual injury rating after approximately 10 d, read-out: Corn plant response rating (0 to 100 scale, 0 no effect, 100 complete control). In a few lines:
(§1)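 Each rating is a visual injury score from 0 to 100 given about 10 d after treatment, judged against untreated controls kept alongside in the greenhouse. In loam soil–sand blend, seeds got a preemergence directed soil spray, while postemergence plants were 2 to 10 cm tall at spraying.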

The subject of assay [2] is Galium (catchweed bedstraw, Galium aparine). The assay is described as follows: Test A postemergence. The settings on record: Galium, post-emergence, 240 h, 125 g ai/ha. In a few lines:
as §1

For assay [3], the system named is barnyardgrass (Echinochloa crus-galli). In words: Test A postemergence. The settings on record: Echinochloa crus-galli, post-emergence, 240 h, 125 g ai/ha. In a few lines:
as §1

Assay [4] deals with ragweed (common ragweed, Ambrosia elatior). In words: Test A postemergence. The conditions noted are these: Ambrosia artemisiifolia, post-emergence, 240 h, 125 g ai/ha. In a few lines:
as §1

In assay [5] the test system is pigweed (Amaranthus retroflexus). The assay is described as follows: Test A preemergence. The settings on record: Amaranthus retroflexus, pre-emergence, 240 h; for pest or weed control at 125 g/ha: 125 g ai/ha; for pest or weed control at 500 g/ha: 500 g ai/ha.
In assay [6] the test system is Kochia (Kochia scoparia). The assay is described as follows: Test A preemergence. The conditions noted are these: Bassia scoparia, pre-emergence, 240 h; for pest or weed control at 125 g/ha: 125 g ai/ha; for pest or weed control at 500 g/ha: 500 g ai/ha. In a few lines:
as §1

Assay [7] deals with giant foxtail (Setaria faberii). The assay is described as follows: Test A preemergence. The conditions noted are these: Setaria faberi, pre-emergence, 240 h; for pest or weed control at 125 g/ha: 125 g ai/ha; for pest or weed control at 500 g/ha: 500 g ai/ha. In a few lines: as §1
Assay [8] has as its system barnyardgrass (Echinochloa crus-galli). In words: Test A preemergence. The settings on record: Echinochloa crus-galli, pre-emergence, 240 h; for pest or weed control at 125 g/ha: 125 g ai/ha; for pest or weed control at 500 g/ha: 500 g ai/ha. An outline of the steps:
as §1

Assay [9] has as its system ryegrass, Italian (Italian ryegrass, Lolium multiflorum). The assay is described as follows: Test A preemergence. The settings on record: Lolium multiflorum, pre-emergence, 240 h; for pest or weed control at 125 g/ha: 125 g ai/ha; for pest or weed control at 500 g/ha: 500 g ai/ha. In a few lines: as §1
Assay [10] concerns ragweed (common ragweed, Ambrosia elatior). In words: Test A preemergence. The conditions noted are these: Ambrosia artemisiifolia, pre-emergence, 240 h; for pest or weed control at 125 g/ha: 125 g ai/ha; for pest or weed control at 500 g/ha: 500 g ai/ha. In a few lines:
as §1

Assay [11] concerns sedge, umbrella (small-flower umbrella sedge, Cyperus difformis). In words: Test B flooded paddy test. The conditions noted are these: Cyperus difformis, Flood, 250 g ai/ha; scale of 0 to 100 where 0 is no effect and 100 is complete control; read-out: Sedge, Umbrella plant response rating. In a few lines:
(§2)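 Percent control, visually estimated after 13–15 d in the greenhouse on a 0–100 basis, compares treated pots with untreated ones; compound was put into paddy water 3 cm above the soil when plants had two leaves.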

Assay [12] relates to ducksalad (Heteranthera limosa). The assay is described as follows: Test B flooded paddy test. The conditions noted are these: Heteranthera limosa, Flood, 250 g ai/ha; scale of 0 to 100 where 0 is no effect and 100 is complete control; read-out: Ducksalad plant response rating. In a few lines: as §2
The subject of assay [13] is rice (Oryra sativa). The assay is described as follows: Test B flooded paddy test. The conditions noted are these: Oryza sativa, Flood, 250 g ai/ha; scale of 0 to 100 where 0 is no effect and 100 is complete control; read-out: Rice plant response rating. An outline of the steps: as §2
The subject of assay [14] is barnyardgrass (Echinochloa crus-galli). In words: Test B flooded paddy test. The settings on record: Echinochloa crus-galli, Flood, 250 g ai/ha; scale of 0 to 100 where 0 is no effect and 100 is complete control; read-out: Barnyardgrass plant response rating. An outline of the steps: as §2
[15] abbreviates: postemergence, visual injury rating after approximately 10 d, read-out: Galium plant response rating (0 to 100 scale, 0 no effect, 100 complete control).
Setting [16] is: postemergence, visual injury rating after approximately 10 d, read-out: Barnyardgrass plant response rating (0 to 100 scale, 0 no effect, 100 complete control).
Setting [17] is: postemergence, visual injury rating after approximately 10 d, read-out: Ragweed plant response rating (0 to 100 scale, 0 no effect, 100 complete control).
Setting [18] is: preemergence, 0 to 100 scale where 0 is no effect and 100 is complete control, read-out: Pigweed plant response rating.
The mark [19] stands for this setting: Preemergence, visual injury vs untreated controls after approximately 10 d, read-out: Pigweed plant response rating (0 to 100 scale where 0 is no effect and 100 is complete control).
[20] abbreviates: preemergence, 0 to 100 scale where 0 is no effect and 100 is complete control, read-out: Kochia plant response rating.
[21] abbreviates: Preemergence, visual injury vs untreated controls after approximately 10 d, read-out: Kochia plant response rating (0 to 100 scale where 0 is no effect and 100 is complete control).
The mark [22] stands for this setting: preemergence, 0 to 100 scale where 0 is no effect and 100 is complete control, read-out: Foxtail, Giant plant response rating.
[23] abbreviates: Preemergence, visual injury vs untreated controls after approximately 10 d, read-out: Foxtail, Giant plant response rating (0 to 100 scale where 0 is no effect and 100 is complete control).
[24] abbreviates: preemergence, 0 to 100 scale where 0 is no effect and 100 is complete control, read-out: Barnyardgrass plant response rating.
[25] abbreviates: Preemergence, visual injury vs untreated controls after approximately 10 d, read-out: Barnyardgrass plant response rating (0 to 100 scale where 0 is no effect and 100 is complete control).
Where [26] appears, read: preemergence, 0 to 100 scale where 0 is no effect and 100 is complete control, read-out: Ryegrass, Italian plant response rating.
[27] abbreviates: Preemergence, visual injury vs untreated controls after approximately 10 d, read-out: Ryegrass, Italian plant response rating (0 to 100 scale where 0 is no effect and 100 is complete control).
[28] abbreviates: preemergence, 0 to 100 scale where 0 is no effect and 100 is complete control, read-out: Ragweed plant response rating.
The mark [29] stands for this setting: Preemergence, visual injury vs untreated controls after approximately 10 d, read-out: Ragweed plant response rating (0 to 100 scale where 0 is no effect and 100 is complete control).

Molecules are shown by their SMILES. Read-outs that look alike come from different tables or passages of the source.

As to `CCc1cc([C@H]2CNC(=O)[C@@H]2C(=O)Nc2ccccc2F)cs1` [Compound 913], the plant injury at 125 g/ha in assay [1] came out at 0%. The pest or weed control at 125 g/ha in assay [2] (setting [15]) amounted to 30%; in assay [3] (setting [16]), 90%; in [4] (setting [17]) it was 30%; in assay [5] (setting [18]), 0%; in [6] (setting [20]), 0%; in [7] (setting [22]), 50%. The pest or weed control at 125 g/ha came out at 80% in assay [8] (setting [24]), 0% in assay [9] (setting [26]) and 0% in assay [10] (setting [28]). Moreover, the pest or weed control at 500 g/ha in assay [5] (setting [19]) worked out at 0%; in assay [6] (setting [21]) it was 40%; in [7] (setting [23]) it was 90%; in assay [8] (setting [25]), 90%; in assay [9] (setting [27]), 40%; in assay [10] (setting [29]) it was 60%. Moreover, the pest or weed control at 250 g/ha in [11] turned out to be 0%; in assay [12], 90%; in assay [13], 0%; in assay [14], 0%.

`CCOc1cccc([C@H]2CN(C)C(=O)[C@@H]2C(=O)Nc2cccc(F)c2F)c1` [Compound 956] had a Corn plant response rating (crop injury, 0 = no effect, 100 = complete kill) at 125 g/ha in assay [1] (Postemergence, visual injury after approximately 10 d, 0 to 100 scale where 0 is no effect and 100 is complete control) of 50%. In addition, the pest or weed control at 125 g/ha in assay [2] (Postemergence, visual injury after approximately 10 d, 0 to 100 scale where 0 is no effect and 100 is complete control, read-out: Plant response rating, Galium) was determined as 40%; in [3] (Postemergence, visual injury after approximately 10 d, 0 to 100 scale where 0 is no effect and 100 is complete control, read-out: Plant response rating, Barnyardgrass), 90%; in assay [4] (Postemergence, visual injury after approximately 10 d, 0 to 100 scale where 0 is no effect and 100 is complete control, read-out: Plant response rating, Ragweed), 20%; in [5] (Preemergence, visual injury rating after approximately 10 d, read-out: Pigweed plant response rating (0 to 100 scale, 0 is no effect, 100 is complete control)), 0%; in [6] (Preemergence, visual injury rating after approximately 10 d, read-out: Kochia plant response rating (0 to 100 scale, 0 is no effect, 100 is complete control)), 90%; in assay [7] (Preemergence, visual injury rating after approximately 10 d, read-out: Foxtail, Giant plant response rating (0 to 100 scale, 0 is no effect, 100 is complete control)), 100%. Besides, the pest or weed control at 125 g/ha in assay [8] (Preemergence, visual injury rating after approximately 10 d, read-out: Barnyardgrass plant response rating (0 to 100 scale, 0 is no effect, 100 is complete control)) was found to be 100%; in assay [9] (Preemergence, visual injury rating after approximately 10 d, read-out: Ryegrass, Italian plant response rating (0 to 100 scale, 0 is no effect, 100 is complete control)), 40%; in assay [10] (Preemergence, visual injury rating after approximately 10 d, read-out: Ragweed plant response rating (0 to 100 scale, 0 is no effect, 100 is complete control)), 20%. Moreover, the pest or weed control at 500 g/ha in assay [5] (preemergence, visual injury rating about 10 d after treatment, 0 to 100 scale (0 no effect, 100 complete control), read-out: Pigweed plant response rating) came to 0%; in assay [6] (preemergence, visual injury rating about 10 d after treatment, 0 to 100 scale (0 no effect, 100 complete control), read-out: Kochia plant response rating) it was 90%; in [7] (preemergence, visual injury rating about 10 d after treatment, 0 to 100 scale (0 no effect, 100 complete control), read-out: Foxtail, Giant plant response rating), 100%; in assay [8] (preemergence, visual injury rating about 10 d after treatment, 0 to 100 scale (0 no effect, 100 complete control), read-out: Barnyardgrass plant response rating), 100%; in [9] (preemergence, visual injury rating about 10 d after treatment, 0 to 100 scale (0 no effect, 100 complete control), read-out: Ryegrass, Italian plant response rating), 90%; in assay [10] (preemergence, visual injury rating about 10 d after treatment, 0 to 100 scale (0 no effect, 100 complete control), read-out: Ragweed plant response rating) it was 80%. In addition, the pest or weed control at 250 g/ha in [11] was 0%; in assay [12] it was 100%; in [13] it was 0%; in assay [14] it was 70%.

In the case of `Cc1c(F)ccc([C@H]2CN(C)C(=O)[C@@H]2C(=O)Nc2cccc(F)c2F)c1F` [Compound 834], the plant injury at 125 g/ha in assay [1] is 40%. For the same compound, the pest or weed control at 125 g/ha in assay [2] (setting [15]) worked out at 60%; in assay [3] (setting [16]), 90%; in assay [4] (setting [17]), 0%; in [5] (setting [18]), 0%; in assay [6] (setting [20]) it was 80%; in assay [7] (setting [22]), 90%. In addition, the pest or weed control at 125 g/ha is 90% in assay [8] (setting [24]), 70% in [9] (setting [26]) and 0% in [10] (setting [28]). The pest or weed control at 500 g/ha amounted to 30% in assay [5] (setting [19]); 90% in [6] (setting [21]); 100% in [7] (setting [23]); 90% in [8] (setting [25]); 80% in assay [9] (setting [27]); 20% in assay [10] (setting [29]). Also, the pest or weed control at 250 g/ha in assay [11] was 0%; in [12], 65%; in assay [13] it was 0%; in assay [14], 60%.

The record behind these values is patent publication US12077503B2, “Substituted cyclic amides and their use as herbicides” (FMC CORPORATION, priority 2015, dated 2024).
